In patent US8168568B1, “Combinatorial therapy for protein signaling diseases” (The United States of America, as represented by the …, priority 2003, dated 2012):

Columns and labels:
Assay type in all cases: cell-based, human
EGFr signaling pathway = assay: Reverse phase protein microarray of EGFr pathway nodes in EGF-stimulated colon cancer cells treated with kinase inhibitors; conditions: CCL-250 cells, drug treatment 30 minutes, then EGF 0.1 μg/mL; FIG. 6A
Description: The epidermal growth factor receptor (EGFr) signaling pathway, which is a well-characterized pathway where interdependence is already known, was investigated. […]. […] In these experiments, colon cancer cells, ATCC CCL-250, which over-express EGFr 25-75% of the time, were cultured. […] Impact of drug compounds on the pathway was evaluated by treating the cells with a drug compound or a combination of drug compounds for 30 minutes. […] Cells were then scraped from the bottom surface of the wells using a pipet tip and placed into mini-centrifuge tubes. The lysates were then vortexed, boiled for 5 minutes, and centrifuged for 20 minutes at 14,000 rpm. The lysates were arrayed using the reverse phase microarray techniques described in Paweletz et al. […] In contrast to forward-phase protein arrays that immobilize the probe, the reverse phase protein array immobilizes the whole repertoire of patient proteins (e.g. by a nitrocellulose substrate) that represent the state of individual tissue cell populations. Probes are then applied to the immobilized proteins. […] The phospho-antibodies bind to the phosphorylated, or activated, form of the protein. The other antibody binds to and is used to determine the total amount of the protein in the sample. Using the values from these two antibodies, the relative activation of that proteins may be calculated as the ratio of phosphorylated protein to total protein.

[1] = test system: EGF stimulated ATCC CCL-250 cancer cells; assay: 10 day colony growth bioassay; conditions: EGF stimulated CCL-250, FIG. 9
[2] = test system: c-erbB1, MEK, and ERK kinases; assay: Kinase substrate array time course with and without MEK inhibitor; conditions: CCL250, 10 uM pretreatment 1 hour, 100 ng/ml EGF; FIG. 18B
Description: Separate aliquots at a series of EGF post treatment time intervals were taken and cell lysates were prepared for kinase substrate array analysis.
To determine if this technology can capture the time-course of linked kinase network events, a series of known connected phosphorylation substrates were analyzed: epidermal growth factor receptor (c-erbB1), MEK, and ERK kinases using a colon cancer cell line (CCL250) with over-expressed c-erbB1 receptor levels. […] When these events are analyzed by reverse phase array, both ERK and MEK phosphorylation show a coordinately linked kinetic profile which is expected since ERK is a direct substrate of MEK kinase (FIG. 18A). […] Phosphorylation of kinase substrates is a transient event, as phosphatases promptly dephosphorylate the substrate as the cascade continues.

EGFR = EGFR activation time course by reverse phase protein array; conditions: for EGFR receptor phosphorylation: time course experiments, 100 ng/ml EGF, 10 μM PGE2, or 25 ng/ml TGF-α
Description: For the time course assays, colon cancer cells were plated in 24-well plates (1×10e5 cells/well), grown to 80% confluency, and serum-starved for 24 hours. […] Unstimulated cells were used as a control for basal activity. To assess TGF-inhibition, cells were pretreated with 100 ng/ml neutralizing TGF-α antibody for 1 hour before stimulation. […] To harvest cells at each timepoint, a number of cells were removed from wells by gentle scraping and suspended in 100 μL of heated SDS sample buffer (50% Tissue Protein Extraction Reagent, 48% 2× Tris-Glycine SDS Sample Buffer and 2% β-Mercaptoethanol) containing 10 μL of protease inhibitor cocktail per ml of lysate. Cells were immediately transferred to a chilled tube.
The reverse-phase protein array were as previously described (Paweletz et al). Briefly, cell lysates were subjected to one freeze/thaw cycle followed by vigorous vortexing to ensure complete liberation of proteins from the cytosol and the cell membrane. Immediately prior to spotting onto nitrocellulose slides, the samples were boiled for 5 minutes to ensure complete denaturation. Samples were spun at high speed in a microcentrifuge to remove any remaining cellular debris. Nanoliter amounts of the samples were arrayed onto nitrocellulose coated slides (Schleicher and Schuell Bioscience Inc., Keene, N.H.). Each sample was spotted nine times to form a “square” pattern consisting of three dilutions, left to right (neat, 1:2, 1:4), and three replicates of each dilution, top to bottom. Sample buffer alone was spotted as a negative control.
Slides were prepared for signal development by incubating for 10 minutes in a 10% solution of Mild Re-Blot Plus (Chemicon Intl, Temecula, Calif.) to expose antigenic sites embedded in the nitrocellulose. This was followed by two 5-minute washes in PBS and incubation in a casein-based blocking solution (Applied Biosystems, Foster City, Calif.) for at least 1 hour. Signal was developed using an automated staining system based on avidin/biotin and peroxidase methodologies (DakoCytomation, Carpinteria, Calif.). Staining is completed by a 5-minute incubation with 3,3′diaminobenzidine tetrahydrochloride (DAB) which results in a brown-colored precipitate at the antigen site. After signal development, slides were scanned on an Epson flatbed scanner at 1200 dpi. Scanned images (saved as an inverted grayscale TIFF file in Adobe Photoshop version 5.5) were analyzed with ImageQuant version 5.2 software (Molecular Dynamics, Amersham, UK). The spot intensity after background correction was proportional to the concentration of the target protein. […]
Activation is expressed as the relative intensity of stimulated cells compared with unstimulated cells on reverse phase protein microarray. […]

COX-2 protein = COX-2 protein expression by reverse phase protein array and Western blot; conditions: colon cancer cells, every 24 hours over 72 hours; data not shown
Description: Lysates that were analyzed by Western blot were evaluated for protein concentration with the BCA Protein Assay Kit (Pierce, Rockford, Ill.). Details of Western analyses are well known. Briefly, equal amounts of proteins were fractionated on 4-20% SDS-PAGE gels and transferred to PVDF membranes. After sequential incubations with primary antibodies and peroxidase-conjugated goat anti-rabbit antibodies (Tropix, Bedford, Mass.), signal was developed using an enhanced chemiluminescent staining system (Tropix, Bedford, Mass.). Protein loading was normalized for phospho- and nonphospho-proteins with the total self-protein and β-actin, respectively.
Protein loading was controlled for by expressing COX-2 protein relative to β-actin.

| Molecule | shunting via the CREB node (relative expression of CREB) (EGFr signaling pathway) | EGFR receptor phosphorylation (EGFR) | also measured |
| --- | --- | --- | --- |
| COc1cc2ncnc(Nc3cccc(Cl)c3)c2cc1OC [AG1478, 4-(3-chloroanilino)-6,7-dimethoxyquinazoline] | not seen |  |  |
| NC(=O)c1nnn(Cc2cc(Cl)c(C(=O)c3ccc(Cl)cc3)c(Cl)c2)c1N [CAI, carboxyamidotriazole] |  |  | inhibition of cell proliferation [1]: no significant-growth inhibition |
| COc1cccc(-c2cc(=O)c3ccccc3o2)c1N [PD98059, 2-(2′-amino-3′-methoxyphenyl)-oxanaphthalen-4-one] | causes shunting through this node |  | activation of ERK (EGFr signaling pathway): diminishing the activation of the next node along the pathway, ERK; phosphorylation of c-erbB1, MEK and ERK after EGF [2]: only ERK phosphorylation was effected |
| CCCCC[C@H](O)/C=C/[C@H]1[C@H](O)CC(=O)[C@@H]1C/C=C\CCCC(=O)O [PGE2, prostaglandin E2] |  | can be induced | EGFR activation with or without TGF-α inhibitor pretreatment (EGFR; harvested at 5 minutes, 100 ng/ml neutralizing TGF-α antibody 1 hour, FIG. 11): requirement of TGF-α for the activation of EGFR by PGE2; expression of COX-2 protein relative to β-actin (COX-2 protein): induced increased expression of COX-2 protein |
| EGF: recombinant epidermal growth factor, EGFR ligand used as stimulus |  | can be induced |  |
| TGF-alpha: EGFR ligand used as stimulus |  | can be induced |  |
